Source: patent publication US20040229791A1, “Compositions and methods of modulating TGF-beta activity by fatty acids” (priority 2002, published 2004)

Key:
Assay type in all cases: binding
[1] = target: T1, TGF-β3-α2M* complex (Homo sapiens, UniProt P01023); assay: Inhibition of 125I-TGF-β3 and α2M* complex formation (5% non-denaturing PAGE); settings: 30% inhibition
T1 construct: was purified from pooled citrate-treate human plasma; from tissue; host or cells: pooled citrate-treated human plasma
T1 sequence (P01023 24-1474): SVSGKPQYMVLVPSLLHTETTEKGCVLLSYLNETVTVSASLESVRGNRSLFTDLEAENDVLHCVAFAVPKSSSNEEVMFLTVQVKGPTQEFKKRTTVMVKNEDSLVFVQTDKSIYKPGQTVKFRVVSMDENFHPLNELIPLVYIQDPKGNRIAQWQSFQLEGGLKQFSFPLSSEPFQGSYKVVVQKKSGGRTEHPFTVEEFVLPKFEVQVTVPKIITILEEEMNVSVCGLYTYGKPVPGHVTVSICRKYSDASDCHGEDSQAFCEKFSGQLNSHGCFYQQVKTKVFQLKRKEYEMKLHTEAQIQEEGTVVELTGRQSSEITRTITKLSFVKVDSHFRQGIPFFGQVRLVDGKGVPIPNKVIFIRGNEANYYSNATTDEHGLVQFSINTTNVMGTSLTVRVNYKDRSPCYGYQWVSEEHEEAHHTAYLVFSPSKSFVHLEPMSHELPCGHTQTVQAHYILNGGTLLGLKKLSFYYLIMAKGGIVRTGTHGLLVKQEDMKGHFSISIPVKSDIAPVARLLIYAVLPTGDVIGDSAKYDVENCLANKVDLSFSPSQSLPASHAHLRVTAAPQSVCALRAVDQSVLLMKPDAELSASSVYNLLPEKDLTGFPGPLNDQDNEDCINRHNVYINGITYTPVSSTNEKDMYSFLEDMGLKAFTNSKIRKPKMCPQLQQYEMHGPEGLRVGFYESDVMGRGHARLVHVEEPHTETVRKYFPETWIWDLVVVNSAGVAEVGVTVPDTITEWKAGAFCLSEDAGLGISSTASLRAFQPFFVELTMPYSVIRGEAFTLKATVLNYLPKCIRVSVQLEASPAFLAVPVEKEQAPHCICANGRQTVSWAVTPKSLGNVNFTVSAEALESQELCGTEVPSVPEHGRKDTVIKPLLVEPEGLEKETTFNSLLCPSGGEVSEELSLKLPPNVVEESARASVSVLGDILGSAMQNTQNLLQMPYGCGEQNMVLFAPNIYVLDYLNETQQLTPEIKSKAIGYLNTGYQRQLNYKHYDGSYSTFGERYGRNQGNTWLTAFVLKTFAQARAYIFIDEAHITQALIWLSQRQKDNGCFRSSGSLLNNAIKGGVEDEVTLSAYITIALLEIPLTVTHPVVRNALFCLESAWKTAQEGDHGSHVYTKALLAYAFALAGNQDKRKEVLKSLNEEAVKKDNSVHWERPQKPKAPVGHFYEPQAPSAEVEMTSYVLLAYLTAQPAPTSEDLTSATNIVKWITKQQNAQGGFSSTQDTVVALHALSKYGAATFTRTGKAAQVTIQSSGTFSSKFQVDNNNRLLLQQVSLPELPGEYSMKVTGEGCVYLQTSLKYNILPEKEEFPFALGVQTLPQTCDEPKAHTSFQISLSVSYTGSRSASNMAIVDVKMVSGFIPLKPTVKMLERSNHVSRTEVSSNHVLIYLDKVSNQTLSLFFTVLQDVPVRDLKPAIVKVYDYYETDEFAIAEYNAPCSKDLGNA
Description: TGF- ? isoforms bind to α2M* with different affinities: TGF ? β2>TGF ? β1 ( active sites of TGF ? β1 and TGF- ? 2 responsible for high-affinity binding to ? 2M* are disti from the low-affinity ? 2M* binding site in TGF- ? 3 (19). To determine if fatty acids differentially affect the binding of TGF- ? isoforms to ? 2M*, the effects of various concentrations of arachidonic acid and myristic acid on complex formation of ^125I-labeled TGF ? β isoforms and ? 2M were determined*. […] It inhibited 30% of the complex form . α2M* and TGF ? β2 and TGF ? β3 at 100 and >250 μM, respectively. Arachidon polyunsaturated fatty acid, was a stronger inhibitor of complex formation of ? 2M* and TGF-.β2/TGF ? β3. It inhibited 50% of the complex formation of ? 2M* and ^125I-TGF- ? 2 at 50 μM (FIG. 3A). The observation that myristic acid and arachidonic acid inhibited complex formation of ^125I-TGF- ? […] 2M* complexes in the reaction mixtures were then analyzed by 7.5% SDS-PAGE and autoradiography.
Complex formation of ^125I-TGF-β and ? […] After 30 min at room temperature, the complex formation of ^125I-TGF- ? and. α2M* was determined by 5% non-denaturing polyacrylamide gel electrophoresis (PAGE) or by 7.5% SDS-PAGE following cross-linking by 0.6 mM DSS. After electrophoresis, the gel was stained with Coomassie blue and analyzed by autoradiography. […] 2M* was quantified using a PhosphoImager (Fuji).

[2] = target: T2, 125I-TGF-β1-α2M* complex (Homo sapiens, UniProt P01023); assay: Dissociation of preformed 125I-TGF-β1-α2M* complex; settings: at 250 μM
T2 construct: was purified from pooled citrate-treate human plasma; from tissue; host or cells: pooled citrate-treated human plasma
T2 sequence (P01023 24-1474): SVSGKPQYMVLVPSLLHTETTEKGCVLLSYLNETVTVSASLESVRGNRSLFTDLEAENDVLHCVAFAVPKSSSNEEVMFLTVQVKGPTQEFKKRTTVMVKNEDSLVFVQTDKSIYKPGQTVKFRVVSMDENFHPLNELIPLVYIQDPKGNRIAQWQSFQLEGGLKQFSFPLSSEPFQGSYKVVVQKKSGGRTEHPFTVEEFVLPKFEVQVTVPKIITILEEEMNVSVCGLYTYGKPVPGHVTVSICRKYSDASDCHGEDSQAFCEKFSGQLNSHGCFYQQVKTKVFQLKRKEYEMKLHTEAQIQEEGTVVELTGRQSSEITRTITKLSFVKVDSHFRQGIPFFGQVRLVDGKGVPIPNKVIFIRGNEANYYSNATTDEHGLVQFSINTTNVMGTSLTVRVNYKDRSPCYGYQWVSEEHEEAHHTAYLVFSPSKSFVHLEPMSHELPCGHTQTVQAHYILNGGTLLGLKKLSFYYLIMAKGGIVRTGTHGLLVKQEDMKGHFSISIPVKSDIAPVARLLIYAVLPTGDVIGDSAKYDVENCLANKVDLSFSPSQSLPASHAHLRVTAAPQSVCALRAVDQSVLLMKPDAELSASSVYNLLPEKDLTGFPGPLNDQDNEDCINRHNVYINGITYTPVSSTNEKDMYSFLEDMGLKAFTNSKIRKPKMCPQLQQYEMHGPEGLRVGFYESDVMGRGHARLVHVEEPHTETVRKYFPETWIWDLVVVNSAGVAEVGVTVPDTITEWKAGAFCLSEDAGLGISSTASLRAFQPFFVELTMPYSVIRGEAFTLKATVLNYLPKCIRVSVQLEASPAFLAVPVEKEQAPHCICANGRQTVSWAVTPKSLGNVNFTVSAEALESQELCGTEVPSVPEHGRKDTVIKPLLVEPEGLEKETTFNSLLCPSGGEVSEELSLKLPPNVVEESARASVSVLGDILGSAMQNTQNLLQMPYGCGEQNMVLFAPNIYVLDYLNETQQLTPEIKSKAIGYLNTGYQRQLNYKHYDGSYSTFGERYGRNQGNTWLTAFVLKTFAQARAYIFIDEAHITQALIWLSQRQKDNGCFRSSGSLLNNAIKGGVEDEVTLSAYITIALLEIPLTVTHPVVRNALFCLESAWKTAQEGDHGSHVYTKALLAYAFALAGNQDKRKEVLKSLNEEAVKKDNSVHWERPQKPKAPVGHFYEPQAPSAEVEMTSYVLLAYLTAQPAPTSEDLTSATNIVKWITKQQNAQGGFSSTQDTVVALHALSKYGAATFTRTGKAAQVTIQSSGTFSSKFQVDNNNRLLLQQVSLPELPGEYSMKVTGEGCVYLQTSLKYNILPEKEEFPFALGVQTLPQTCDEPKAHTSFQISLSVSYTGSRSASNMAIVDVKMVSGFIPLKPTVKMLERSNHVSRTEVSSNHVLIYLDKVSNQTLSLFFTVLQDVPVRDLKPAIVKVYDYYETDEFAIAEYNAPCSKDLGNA
Description: To determine whether fatty acids are capable of dissociating TGF- ? - ? 2M* complexes, various concentrations of arachidonic acid were added to a reaction mixture containing ^125I-TGF- ? 1 or ^125I-TGF ? β3 and α2M* which had been preincubated at room temperature for 30 mi 30 minutes at room temperature, the ^125I-TGF ? β isoform-α2M* complexes in the reaction mixtures were analyzed by 5% non-denaturing PAGE. […] However, lower concentrations of arachidonic acid were effective in inhibiting complex formation of ^125I-TGF- ? 1 and α2M* than were required to dissociate the ^125I-TGF- ? 1- ? 2M* complex.

[3] = target: T3, 125I-TGF-β2-α2M* complex (Homo sapiens, UniProt P01023); assay: Dissociation of preformed 125I-TGF-β2-α2M* complex; settings: at 250 μM
T3 construct: was purified from pooled citrate-treate human plasma; from tissue; host or cells: pooled citrate-treated human plasma
T3 sequence (P01023 24-1474): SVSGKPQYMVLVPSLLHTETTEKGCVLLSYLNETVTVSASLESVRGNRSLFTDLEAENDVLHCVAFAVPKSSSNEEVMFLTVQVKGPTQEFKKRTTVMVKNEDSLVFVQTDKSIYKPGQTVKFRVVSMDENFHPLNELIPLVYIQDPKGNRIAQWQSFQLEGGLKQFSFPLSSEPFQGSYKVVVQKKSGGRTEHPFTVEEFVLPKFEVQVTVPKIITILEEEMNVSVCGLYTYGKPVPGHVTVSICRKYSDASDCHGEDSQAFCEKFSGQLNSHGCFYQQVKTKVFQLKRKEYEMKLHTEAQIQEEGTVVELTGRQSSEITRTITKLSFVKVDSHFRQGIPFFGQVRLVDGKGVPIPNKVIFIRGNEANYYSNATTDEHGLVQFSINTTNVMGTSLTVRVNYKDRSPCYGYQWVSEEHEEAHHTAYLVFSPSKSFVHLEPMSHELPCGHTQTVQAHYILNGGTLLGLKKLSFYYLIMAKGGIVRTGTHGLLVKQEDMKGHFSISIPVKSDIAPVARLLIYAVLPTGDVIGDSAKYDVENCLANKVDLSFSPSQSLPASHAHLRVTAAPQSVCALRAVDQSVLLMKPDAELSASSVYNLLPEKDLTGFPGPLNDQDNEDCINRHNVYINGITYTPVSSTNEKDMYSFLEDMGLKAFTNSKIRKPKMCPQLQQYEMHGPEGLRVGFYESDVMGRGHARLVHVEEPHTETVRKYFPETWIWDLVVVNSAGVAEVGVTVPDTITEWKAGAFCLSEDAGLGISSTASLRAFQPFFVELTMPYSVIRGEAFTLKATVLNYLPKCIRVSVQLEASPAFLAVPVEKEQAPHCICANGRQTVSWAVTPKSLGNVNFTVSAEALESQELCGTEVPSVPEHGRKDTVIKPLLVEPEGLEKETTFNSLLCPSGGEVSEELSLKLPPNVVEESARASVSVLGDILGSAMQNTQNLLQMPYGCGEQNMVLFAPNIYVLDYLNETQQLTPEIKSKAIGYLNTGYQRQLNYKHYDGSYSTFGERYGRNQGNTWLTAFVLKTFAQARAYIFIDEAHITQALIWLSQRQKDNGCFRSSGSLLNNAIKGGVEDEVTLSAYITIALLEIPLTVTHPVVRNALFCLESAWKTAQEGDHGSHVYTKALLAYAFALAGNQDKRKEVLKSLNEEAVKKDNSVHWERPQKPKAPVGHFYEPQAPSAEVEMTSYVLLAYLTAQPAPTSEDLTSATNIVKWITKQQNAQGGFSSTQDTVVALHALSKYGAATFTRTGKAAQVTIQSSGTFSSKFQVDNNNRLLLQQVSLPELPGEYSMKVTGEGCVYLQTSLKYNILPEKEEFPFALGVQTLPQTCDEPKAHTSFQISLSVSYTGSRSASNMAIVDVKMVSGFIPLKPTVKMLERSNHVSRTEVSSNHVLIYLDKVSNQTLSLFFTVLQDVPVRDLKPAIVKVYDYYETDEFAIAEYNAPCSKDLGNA

Compound: CCCCCCCCCCCCCC(=O)O [myristic acid]
- concentration that inhibited 30% of the complex formation of α2M* and TGF-β3 [1]: > 250 µM
- dissociation of the 125I-TGF-β1-α2M* complex [2]: inactive
- dissociation of the 125I-TGF-β2-α2M* complex [3]: inactive
